Laboratory results as given in article PMC3546743 (2012).

Test system: modified aptamer M3.2 (DNA, aptamer) ACTCATCTGTGAAGAGAAGCAGCACAGAGGTCAGATGTCCGTCAGCCCCGATCGCCATCCAGGGACTCCCCCCTATGCCTATGCGTGCTACCGTGAA
Experiment: gold nanoparticle colorimetric assay, UV-Vis
Conditions: 250 mM NaCl; 1 µL of 50 mM compound in DMF added; room temperature; thiol oligos on gold nanoparticles

SMILES	binding
CC(C)[C@H]1C(=O)N2CCC[C@H]2[C@]2(O)O[C@](NC(=O)[C@@H]3C=C4c5cccc6[nH]cc(c56)C[C@H]4N(C)C3)(C(C)C)C(=O)N12	no
CN1C[C@H](CN)C[C@@H]2c3cccc4c3c(cn4C)C[C@H]21	yes
CN1C[C@H](CNC(=O)OCc2ccccc2)C[C@@H]2c3cccc4c3c(cn4C)C[C@H]21	yes
O=C(N[C@H](CO)[C@H](O)c1ccc([N+](=O)[O-])cc1)C(Cl)Cl	no

Next, values leading:

binding	SMILES
no	CN(C)Cc1c[nH]c2ccccc12
no	NCCc1c[nH]c2ccccc12
no	N[C@@H](Cc1c[nH]c2ccccc12)C(=O)O
